# Values quoted from earlier work as cited in publication PMC10182713 (South African Journal of Botany, 2023).
# Test system: multidrug-resistant TB
# Conditions: ref Favela-Hernández et al. (2012); cited from earlier work
row,SMILES,Activity against multidrug-resistant TB in words
1,"COc1cc(-c2oc3c(OC)c(OC)cc(O)c3c(=O)c2OC)ccc1O [5,4-dihydroxy-3,7,8,3-tetramethoxyflavone]",active
2,"COc1cc(O)c2c(=O)c(OC)c(-c3ccc(O)cc3)oc2c1OC [5,4-dihydroxy 3,7,8-trimethoxyflavone]",active
